# From ChEMBL document CHEMBL1156528, “Acetyl-lysine analog peptides as mechanistic probes of protein deacetylases” (J Biol Chem, 2007)
# Molecular target: NAD-dependent protein deacetylase HST2 (Saccharomyces cerevisiae S288c, UniProt P53686)
# Assay: Binding affinity to Saccharomyces cerevisiae Hst2 by isothermal titration calorimetry
# Chain of NAD-dependent protein deacetylase HST2 (P53686 whole entry): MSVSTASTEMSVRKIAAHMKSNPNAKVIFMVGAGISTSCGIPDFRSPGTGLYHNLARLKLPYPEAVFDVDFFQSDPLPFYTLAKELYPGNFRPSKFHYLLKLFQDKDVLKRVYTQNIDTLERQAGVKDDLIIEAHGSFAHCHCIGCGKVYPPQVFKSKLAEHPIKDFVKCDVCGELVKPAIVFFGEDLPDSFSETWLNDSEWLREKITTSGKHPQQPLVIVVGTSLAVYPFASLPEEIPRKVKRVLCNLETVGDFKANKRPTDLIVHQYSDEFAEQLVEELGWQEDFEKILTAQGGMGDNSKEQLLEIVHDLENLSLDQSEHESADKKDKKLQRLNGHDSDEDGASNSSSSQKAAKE
row,Kd [µM],Compound
1,3.3,CC(=N)NCCCC[C@H](NC(=O)CNC(=O)CNC(=O)[C@@H](NC(=O)[C@H](CO)NC(=O)[C@@H](N)CCCCN)[C@@H](C)O)C(=O)N[C@@H](C)C(=O)N1CCC[C@H]1C(=O)N[C@@H](CCCN=C(N)N)C(=O)N[C@@H](CCCCN)C(=O)N[C@@H](CCC(N)=O)C(=O)O
2,16,CCCC(=O)NCCCC[C@H](NC(=O)CNC(=O)CNC(=O)[C@@H](NC(=O)[C@H](CO)NC(=O)[C@@H](N)CCCCN)[C@@H](C)O)C(=O)N[C@@H](C)C(=O)N1CCC[C@H]1C(=O)N[C@@H](CCCN=C(N)N)C(=O)N[C@@H](CCCCN)C(=O)N[C@@H](CCC(N)=O)C(=O)O
3,3.3,C[C@H](NC(=O)[C@H](CCCCNC(N)=O)NC(=O)CNC(=O)CNC(=O)[C@@H](NC(=O)[C@H](CO)NC(=O)[C@@H](N)CCCCN)[C@@H](C)O)C(=O)N1CCC[C@H]1C(=O)N[C@@H](CCCN=C(N)N)C(=O)N[C@@H](CCCCN)C(=O)N[C@@H](CCC(N)=O)C(=O)O

# More lines, now with the values behind:
row,Compound,Kd [µM]
1,C[C@H](NC(=O)[C@H](CCCCNC(=O)CF)NC(=O)CNC(=O)CNC(=O)[C@@H](NC(=O)[C@H](CO)NC(=O)[C@@H](N)CCCCN)[C@@H](C)O)C(=O)N1CCC[C@H]1C(=O)N[C@@H](CCCNC(=N)N)C(=O)N[C@@H](CCCCN)C(=O)N[C@@H](CCC(N)=O)C(=O)O,3.3
2,C[C@H](NC(=O)[C@H](CCCCNC(=O)C(F)F)NC(=O)CNC(=O)CNC(=O)[C@@H](NC(=O)[C@H](CO)NC(=O)[C@@H](N)CCCCN)[C@@H](C)O)C(=O)N1CCC[C@H]1C(=O)N[C@@H](CCCN=C(N)N)C(=O)N[C@@H](CCCCN)C(=O)N[C@@H](CCC(N)=O)C(=O)O,3.3
3,CC(=S)NCCCC[C@H](NC(=O)CNC(=O)CNC(=O)[C@@H](NC(=O)[C@H](CO)NC(=O)[C@@H](N)CCCCN)[C@@H](C)O)C(=O)N[C@@H](C)C(=O)N1CCC[C@H]1C(=O)N[C@@H](CCCNC(=N)N)C(=O)N[C@@H](CCCCN)C(=O)N[C@@H](CCC(N)=O)C(=O)O,3.3
4,C[C@H](NC(=O)[C@H](CCCCNC(=O)CO)NC(=O)CNC(=O)CNC(=O)[C@@H](NC(=O)[C@H](CO)NC(=O)[C@@H](N)CCCCN)[C@@H](C)O)C(=O)N1CCC[C@H]1C(=O)N[C@@H](CCCNC(=N)N)C(=O)N[C@@H](CCCCN)C(=O)N[C@@H](CCC(N)=O)C(=O)O,3.3
5,C[C@H](NC(=O)[C@H](CCCCNC(=N)N)NC(=O)CNC(=O)CNC(=O)[C@@H](NC(=O)[C@H](CO)NC(=O)[C@@H](N)CCCCN)[C@@H](C)O)C(=O)N1CCC[C@H]1C(=O)N[C@@H](CCCNC(=N)N)C(=O)N[C@@H](CCCCN)C(=O)N[C@@H](CCC(N)=O)C(=O)O,3.3
